Experimental data published in patent US7662842B2, “Thiazolidinone amides, thiazolidine carboxylic acid amides, and serine amides, including polyamine conjugates thereof, as selective anti-cancer agents” (Ohio State Univesity Research Foundation, priority 2003, dated 2010).

What was measured:
[1] = system: RH7777 rat hepatoma cells; experiment: SRB cytotoxicity assay, RH7777 control cell line; type: cell-based; details: for IC50: Rattus norvegicus, RH7777, SRB assay, 96 h exposure, control cell line
Procedure: (§1) For in vitro cytotoxicity screening, 1000 to 5000 cells were plated into each well of 96-well plates depending on growth rate, and exposed to different concentrations of a test compound for 96 h in three to five replicates. All the compounds were dissolved in dimethyl sulfoxide at 5 to 20 mM, and diluted to desired concentrations in complete culture medium. Cell numbers at the end of the drug treatment were measured by the SRB assay (Gududuru et al., “Synthesis and Biological Evaluation of Novel Cytotoxic Phospholipids for Prostate Cancer,” Bioorg. Med. Chem. Lett. 14:4919-4923 (2004); Rubinstein et al., “Comparison of in vitro Anticancer-Drug-Screening Data Generated with a Tetrazolium Assay Versus a Protein Assay Against a Diverse Panel of Human Tumor Cell Lines,” J. Natl. Cancer Inst. 82:1113-1118 (1990), each of which is hereby incorporated by reference in its entirety). Briefly, the cells were fixed with 10% of trichloroacetic acid, stained with 0.4% SRB, and the absorbances at 540 nm was measured using a plate reader (DYNEX Technologies, Chantilly, Va.). […] A sandwich ELISA (Roche, Mannheim, Germany) utilizing monoclonal antibodies specific for DNA and histones was used to quantify degree of apoptosis induced by the analogs after 72 h exposure. This assay measures DNA-histone complexes (mono- and oligonucleosomes) released into cytoplasm from the nucleus during apoptosis.

[2] = system: DU-145 human prostate cancer cells; experiment: SRB cytotoxicity assay, DU-145; type: cell-based; details: Homo sapiens, DU-145, read-out: IC50 DU-145, 96 h exposure, prostate cancer cell line
Procedure: as §1

[3] = system: PC-3 human prostate cancer cells; experiment: SRB cytotoxicity assay, PC-3; type: cell-based; details: Homo sapiens, 96 h exposure, prostate cancer cell line
Procedure: as §1

[4] = system: LNCaP human prostate cancer cells; experiment: SRB cytotoxicity assay, LNCaP; type: cell-based; details: Homo sapiens, LNCaP, 96 h exposure, prostate cancer cell line
Procedure: as §1

[5] = system: PPC-1 human prostate cancer cells; experiment: SRB cytotoxicity assay, PPC-1; type: cell-based; details: Homo sapiens, PPC-1, 96 h exposure, prostate cancer cell line
Procedure: (§2) Dr. Mitchell Steiner at University of Tennessee Health Science Center, kindly provided PPC-1 and TSU-Pr1 cells.
as §1

[6] = system: TSU-Pr1 human prostate cancer cells; experiment: SRB cytotoxicity assay, TSU-Pr1; type: cell-based; details: Homo sapiens, TSU-Pr1, 96 h exposure, prostate cancer cell line
Procedure: as §2, §1

[7] = system: CaOv-3 human ovarian cancer cell line; experiment: SRB cytotoxicity assay, CaOv-3; type: cell-based
Procedure: (§3) For in vitro cytotoxicity screening, 1000 to 5000 cells were plated into each well of 96-well plates depending on growth rate, and exposed to different concentrations of a test compound for 96 h in three to five replicates. All the compounds were dissolved in dimethyl sulfoxide at 5 to 20 mM, and diluted to desired concentrations in complete culture medium. Cell numbers at the end of the drug treatment were measured by the SRB assay (Gududuru et al., “Synthesis and Biological Evaluation of Novel Cytotoxic Phospholipids for Prostate Cancer,” Bioorg. Med. Chem. Lett. 14:4919-4923 (2004); Rubinstein et al., “Comparison of in vitro Anticancer-Drug-Screening Data Generated with a Tetrazolium Assay Versus a Protein Assay Against a Diverse Panel of Human Tumor Cell Lines,” J. Natl. Cancer Inst. 82:1113-1118 (1990), each of which is hereby incorporated by reference in its entirety). Briefly, the cells were fixed with 10% of trichloroacetic acid, stained with 0.4% SRB, and the absorbances at 540 nm was measured using a plate reader (DYNEX Technologies, Chantilly, Va.). […] A sandwich ELISA (Roche, Mannheim, Germany) utilizing monoclonal antibodies specific for DNA and histones was used to quantify degree of apoptosis induced by the analogs after 72 h exposure. This assay measures DNA-histone complexes (mono- and oligonucleosomes) released into cytoplasm from the nucleus during apoptosis. RH7777 cells were employed because of nonspecific cytotoxicity of compound 4 in receptor-negative cells as well as receptor-positive prostate cancer cells.
(§4) In vitro cytotoxicity assay was performed by the same sulforhodamine B (SRB) assay (described above). The compounds shown in Table 8 below where tested for activity against the breast cancer and ovarian cancer cell lines.

[8] = system: OVCAR-3 human ovarian cancer cell line; experiment: SRB cytotoxicity assay, OVCAR-3; type: cell-based
Procedure: as §3, §4

[9] = system: SKOv-3 human ovarian cancer cell line; experiment: SRB cytotoxicity assay, SKOv-3; type: cell-based; details: SK-OV-3
Procedure: as §3, §4

[10] = system: SKMEL-188 melanoma cells; experiment: Sulforhodamine B assay in melanoma cells, SKMEL-188; type: cell-based; details: SK-MEL-188, 48 h, SRB assay, 48 h incubation; melanoma cell line
Procedure: (§5) SKMEL-188 cells were cultured in Ham's F10 medium (Gibco Invitrogen, Inc., Grand Island, N.Y.) plus 5% fetal bovine serum (Cellgro Mediatech, Inc., Herndon, Va.) and 1% antibiotic/antimycotic mixture (Sigma-Aldrich, Inc., St. Louis, Mo.). WM-164 cells (gift of Dr. Meenhard Herlyn, Wistar Inst., Philadelphia, Pa.) and human dermal fibroblasts (Cascade Biologics, Inc., Portland, Oreg.) were cultured in DMEM medium (Cellgro Mediatech, Inc.) supplemented with 5% fetal bovine serum, 1% antibiotic.antimycotic mixture and bovine insulin ([…], Sigma-Aldrich, Inc.). Human dermal fibroblasts were used as a control to examine the effects of compounds on stromal environment. Thus, the effect of the various compounds on melanoma cells versus fibroblasts would document their potential selectivity.
(§6) Sulforhodamine B Assay: Cells were seeded into 96-well plates at 5000 cells/well. After 12 hours, media were changed and serial dilutions of compounds were added. Cells were incubated with each compound for 48 hours. Fresh media containing the test compound were changed ever 24 hours. Thereafter, total cell protein corresponding to cell numbers (both viable and non-viable cells) were measured using the sulforhodamine B (SRB) assay according to manufacturer's protocol (Sigma-Aldrich, Inc.) (Rubinstein et al., “Comparison of in vitro Anticancer Drug-screening Data Generated with a Tetrazolium Assay Versus a Protein Assay Against a Diverse Panel of Human Tumor Cell Lines,” J. Natl. Cancer Inst. 82:1113-1118 (1990); Dothager et al., “Synthesis and Identification of Small Molecules that Potently Induce Apoptosis in Melanoma Cells Through GI Cell Cycle Arrest,” J. Am. Chem. Soc. 127:8686-8696 (2005), each of which is hereby incorporated by reference in its entirety). Briefly, cells were fixed with trichloracetic acid, washed and incubated with sulforhodamine B for 30 minutes. After another wash, dye incorporated into the cells was solubilized and measured using a plate reader at 565 nm.
(§7) Statistical Analysis: Data is presented as mean±SEM (n=6-8). […] Statistical analyses were performed with Student's t-test (*p<0.05; **p<0.005).
(§8) DTIC and Taxol were assayed in the same way for comparison and served as internal quality controls in the different batches of assay. For comparison, the activities of 5R and 5S were measured.

[11] = system: WM-164 cells; experiment: Sulforhodamine B assay in melanoma cells, WM-164; type: cell-based; details: Homo sapiens, WM164, read-out: IC50 WM-164; SRB assay, 48 h incubation; melanoma cell line
Procedure: as §5, §6, §7, §8

[12] = system: human dermal fibroblasts; experiment: Sulforhodamine B assay, fibroblast control cells; type: cell-based; details: Homo sapiens, Fibroblast, 48 h, SRB assay, 48 h incubation
Procedure: as §5, §6, §7, §8

[13] = system: PC-3 cells; experiment: Apoptosis sandwich ELISA (DNA-histone complex), PC-3; type: cell-based, human
Procedure: as §3
(§9) From the LPL receptor mRNA expression studies (Table 2), it was evident that these cell lines serve as an excellent model system to explore the effects of LPL receptor. Given the structural similarity of SAPs to ceramide (and the known ability of ceramide to induce apoptosis), it was then determined whether the antiproliferative effects of thiazolidine analogs were mediated via apoptotic events. The ability of the analogs to induce apoptosis in LNCaP, PC-3, and RH7777 cells was examined using a quantitative sandwich ELISA that measures DNA-histone complex released during apoptosis. The enrichment factor calculated (as ratio of OD405 in treated and un-treated cells) provides a quantitative assessment of the degree of apoptosis induced. Initially, only two compounds (4 & 5) were used for this study. Apoptotic activity of analog (compound 4) was selective in prostate cancer cells despite nonselective cytotoxicity in RH7777 negative control cells (see Table 5 below). Analog compound 5 induced apoptosis in PC-3 and LNCaP cells, but to a lesser extent in PC-3 cells perhaps due to lower potency in this cell line.

[14] = system: LNCaP cells; experiment: Apoptosis sandwich ELISA (DNA-histone complex), LNCaP; type: cell-based, human
Procedure: as §3, §9

[15] = system: SKMEL-188 and WM-164 cell lines; experiment: SRB assay, statements on both melanoma cell lines; type: cell-based
Procedure: Louis, Mo.). WM-164 cells (gift of Dr. Meenhard Herlyn, Wistar Inst., Philadelphia, Pa.) and human dermal fibroblasts (Cascade Biologics, Inc., Portland, Oreg.) were cultured in DMEM medium (Cellgro Mediatech, Inc.) supplemented with 5% fetal bovine serum, 1% antibiotic.antimycotic mixture and bovine insulin ([…], Sigma-Aldrich, Inc.). Human dermal fibroblasts were used as a control to examine the effects of compounds on stromal environment. Thus, the effect of the various compounds on melanoma cells versus fibroblasts would document their potential selectivity. Sulforhodamine B Assay: Cells were seeded into 96-well plates at 5000 cells/well. After 12 hours, media were changed and serial dilutions of compounds were added. Cells were incubated with each compound for 48 hours. Fresh media containing the test compound were changed ever 24 hours. Thereafter, total cell protein corresponding to cell numbers (both viable and non-viable cells) were measured using the sulforhodamine B (SRB) assay according to manufacturer's protocol (Sigma-Aldrich, Inc.) (Rubinstein et al., “Comparison of in vitro Anticancer Drug-screening Data Generated with a Tetrazolium Assay Versus a Protein Assay Against a Diverse Panel of Human Tumor Cell Lines,” J. Natl. Cancer Inst. 82:1113-1118 (1990); Dothager et al., “Synthesis and Identification of Small Molecules that Potently Induce Apoptosis in Melanoma Cells Through GI Cell Cycle Arrest,” J. Am. Chem. Soc. 127:8686-8696 (2005), each of which is hereby incorporated by reference in its entirety). Briefly, cells were fixed with trichloracetic acid, washed and incubated with sulforhodamine B for 30 minutes. After another wash, dye incorporated into the cells was solubilized and measured using a plate reader at 565 nm. Statistical Analysis: Data is presented as mean±SEM (n=6-8). […] Statistical analyses were performed with Student's t-test (*p<0.05; **p<0.005). […] DTIC and Taxol were assayed in the same way for comparison and served as internal quality controls in the different batches of assay. For comparison, the activities of 5R and 5S were measured.

SMILES: CCCCCCCCCCCCCCCCCCNC(=O)[C@@H]1CSC(c2cccc(O)c2)N1 (mixture of isomers) [Compound 14, (2RS, 4R)-2-(3-Hydroxy-phenyl)-thiazolidine-4-carboxylic acid octadecylamide]
- IC50 [1]: 31 µM
- IC50 [2]: 5.7 µM
- IC50 [3]: 6.7 µM
- IC50 [4]: 1.7 µM
- IC50 [5]: 1.2 µM
- IC50 [6]: 4 µM
- IC50 [7]: 18.3 µM
- IC50 [8]: 8.1 µM
- IC50 [9]: 11 µM
- melting point: 50 °C

SMILES: CCCCCCCCCCCCCCCCCCNC(=O)[C@@H]1CSC(c2ccc(OC)c(OC)c2)N1.Cl (mixture of isomers) [Compound 16, (2RS, 4R)-2-(3,4-Dimethoxy-phenyl)-thiazolidine-4-carboxylic acid octadecylamide Hydrochloride]
- IC50 [1]: 10.3 µM
- IC50 [2]: 4.5 µM
- IC50 [4]: 0.85 µM
- IC50 [5]: 0.58 µM
- IC50 [6]: 2.4 µM
- IC50 [7]: 5.5 µM
- IC50 [8]: 1.2 µM
- IC50 [9]: 3.6 µM
- IC50 [10]: 2.4 µM
- IC50 [11]: 3.1 µM
- IC50 [12]: > 10 µM
- melting point: 103 °C

SMILES: CCCCCCCCCCCCCCCCCCNC(=O)[C@H]1CSC(c2ccccc2)N1 (stereo partly drawn) [5(S), (4S)—N-octadecyl-2-phenylthiazolidine-4-carboxamide]
- IC50 [10]: 24 µM
- IC50 [11]: 18.1 µM
- IC50 [12]: 27.5 µM
- Apoptosis enrichment factor (ratio of OD405 in treated and un-treated cells), PC-3 ([13]; 2 μM for 72 h): 1.1
- Apoptosis enrichment factor (ratio of OD405 in treated and un-treated cells), PC-3 ([13]; 5 μM for 72 h): 1.2
- Apoptosis enrichment factor (ratio of OD405 in treated and un-treated cells), PC-3 ([13]; 10 μM for 72 h): 1.4
- Apoptosis enrichment factor (ratio of OD405 in treated and un-treated cells), PC-3 ([13]; 20 μM for 72 h): 2.7
- Apoptosis enrichment factor (ratio of OD405 in treated and un-treated cells), LNCaP ([14]; 2 μM for 72 h): 3.1
- Apoptosis enrichment factor (ratio of OD405 in treated and un-treated cells), LNCaP ([14]; 5 μM for 72 h): 5.4
- Apoptosis enrichment factor (ratio of OD405 in treated and un-treated cells), LNCaP ([14]; 10 μM for 72 h): 25.8
- Apoptosis enrichment factor (ratio of OD405 in treated and un-treated cells), LNCaP ([14]; 20 μM for 72 h): 46.8
- Induction of apoptosis in LNCaP and PC-3 cells ([14]; LNCaP and PC-3 cells, lesser extent in PC-3): significantly induced apoptosis

SMILES: CCCCCCCCCCCCCCCCCCNC(=O)C1CSC(c2ccoc2)N1 (stereo not drawn) [Compound 12, 2-(furan-3-yl)-N-octadecylthiazolidine-4-carboxamide]
- IC50 [1]: 10.4 µM
- Fold less selective against RH7777 cell line than compound 5 ([1]; relative to compound 5): 3 fold
- IC50 [2]: 6.6 µM
- IC50 [3]: 8.1 µM
- IC50 [4]: 1.7 µM
- IC50 [5]: 1.1 µM
- IC50 [6]: 4.2 µM
- IC50 [7]: 7.7 µM
- IC50 [8]: 2.3 µM
- IC50 [9]: 5.4 µM

SMILES: CN(C)/N=N/c1[nH]cnc1C(N)=O [DTIC, dacarbazine, reference compound]
- IC50 [10]: > 100 µM
- IC50 [11]: > 100 µM
- IC50 ([15]; 48 h, read-out: IC50 against both melanoma cell lines): > 100 µM

SMILES: CC(=O)O[C@H]1C(=O)[C@@]2(C)[C@H]([C@H](OC(=O)c3ccccc3)[C@]3(O)C[C@H](OC(=O)[C@H](O)[C@@H](NC(=O)c4ccccc4)c4ccccc4)C(C)=C1C3(C)C)[C@]1(OC(C)=O)CO[C@@H]1C[C@@H]2O [Taxol, reference compound]
- IC50 [10]: 3.8 µM
- IC50 [11]: 6.1 µM
- IC50 [12]: > 10 µM
- Killing of melanoma cells (cytostatic versus cytotoxic) ([15]; higher concentrations): not effective in killing the cells
